In patent EP2970215B1, “PYRROLIDINE DERIVATIVES, PHARMACEUTICAL COMPOSITIONS CONTAINING THEM, AND THEIR USE IN THERAPY” (AbbVie Deutschland GmbH & Co. KG, priority 2013, dated 2014):
pKi: −log10 of the molar value.

Each compound was assayed against T1, human GlyT1c transporter (Homo sapiens, UniProt P48067) (assay: Radioligand binding assay using recombinant CHO cell membranes expressing human GlyT1). Conditions: radioligand binding to human GlyT1c transporter-expressing membranes.
T1 construct: expressed in transfected cells; host or cells: CHO cells (recombinant; line hGlyT1c_5_CHO is named for the uptake assay)
T1 sequence (P48067 1-706): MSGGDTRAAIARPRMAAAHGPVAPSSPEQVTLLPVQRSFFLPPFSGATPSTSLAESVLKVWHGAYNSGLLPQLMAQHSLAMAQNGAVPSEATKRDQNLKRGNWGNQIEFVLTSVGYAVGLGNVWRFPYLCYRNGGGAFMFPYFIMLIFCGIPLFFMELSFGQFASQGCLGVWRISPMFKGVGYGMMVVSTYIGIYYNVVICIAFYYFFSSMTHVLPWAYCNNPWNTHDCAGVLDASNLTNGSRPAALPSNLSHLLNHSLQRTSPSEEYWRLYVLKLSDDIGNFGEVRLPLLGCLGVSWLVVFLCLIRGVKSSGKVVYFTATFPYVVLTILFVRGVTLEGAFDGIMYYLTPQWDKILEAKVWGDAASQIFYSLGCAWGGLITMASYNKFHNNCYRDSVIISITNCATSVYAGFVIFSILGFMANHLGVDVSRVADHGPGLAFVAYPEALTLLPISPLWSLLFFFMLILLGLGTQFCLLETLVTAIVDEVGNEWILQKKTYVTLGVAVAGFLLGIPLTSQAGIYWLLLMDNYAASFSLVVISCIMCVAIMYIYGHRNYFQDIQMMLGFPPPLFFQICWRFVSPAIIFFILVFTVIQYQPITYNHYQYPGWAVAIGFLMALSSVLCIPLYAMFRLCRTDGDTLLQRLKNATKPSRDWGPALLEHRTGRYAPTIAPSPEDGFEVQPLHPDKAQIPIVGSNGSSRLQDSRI
From the text: 2. Radioligand binding assays using recombinant CHO cell membranes expressing human GlyT1: […]

Row | Structure (SMILES) | pKi
1 | Cn1cnc(S(=O)(=O)N2C[C@@H](NCc3cccc(C(F)(F)F)c3)[C@H](c3ccc(F)cc3)C2)c1 (relative stereo) [Example 266, trans-4-(4-fluorophenyl)-1-[(1-methyl-1H-imidazol-4-yl)sulfonyl]-N-[3-(trifluoromethyl)benzyl]pyrrolidin-3-amine] | ≥ 6.00
2 | COCCCNC(=O)[C@H]1CN(S(=O)(=O)c2cn(C)cn2)C[C@@H]1c1ccc(F)cc1 [Example 583, (3R,4S)-4-(4-fluorophenyl)-N-(3-methoxypropyl)-1-[(1-methyl-1H-imidazol-4-yl)sulfonyl]pyrrolidine-3-carboxamide] | ≥ 5.00
3 | Cn1cnc(S(=O)(=O)N2C[C@@H](NCc3ccc(C(F)(F)F)cc3Cl)[C@H](c3ccccc3F)C2)c1 (relative stereo) [Example 283, trans-N-[2-chloro-4-(trifluoromethyl)benzyl] -4-(2-fluorophenyl)-1-[(1-methyl-1H-imidazol-4-yl)sulfonyl]pyrrolidin-3-amine] | ≥ 7.00
4 | Cc1ccc(CN[C@H]2CN(S(=O)(=O)c3cn(C)cn3)C[C@@H]2c2ccccc2)nc1 [Example 536, (3R,4S)-1-[(1-methyl-1H-imidazol-4-yl)sulfonyl]-N-[(5-methylpyridin-2-yl)methyl]-4-phenylpyrrolidin-3-amine] | ≥ 6.00
5 | O=S(=O)(c1cccc2cnccc12)N1CC(Nc2ccc(F)c(F)c2)C(c2ccccc2)C1 (stereo not shown) [Example 515, N-(3,4-difluorophenyl)-1-(isoquinolin-5-ylsulfonyl)-4-phenylpyrrolidin-3-amine] | ≥ 5.00
6 | O=S(=O)(C1CCCCC1)N1CC(Nc2ccc(F)c(F)c2)C(c2ccccc2)C1 (stereo not shown) [Example 510, 1-(cyclohexylsulfonyl)-N-(3,4-difluorophenyl)-4-phenylpyrrolidin-3-amine] | ≥ 5.00
7 | Cn1cnc(S(=O)(=O)N2C[C@@H](Nc3ccc(F)c(Cl)c3)[C@H](c3ccc(F)cc3)C2)c1 (relative stereo) [Example 160, trans-N-(3-chloro-4-fluorophenyl)-4-(4-fluorophenyl)-1-[(1-methyl-1H-imidazol-4-yl)sulfonyl]pyrrolidin-3-amine] | ≥ 8.00
8 | Cn1cnc(S(=O)(=O)N2C[C@@H](Nc3ccncc3)[C@H](c3ccccc3)C2)c1 (relative stereo) [Example 209, N-{trans-1-[(1-methyl-1H-imidazol-4-yl)sulfonyl]-4-phenylpyrrolidin-3-yl}pyridin-4-amine] | ≥ 5.00
9 | Cn1cnc(S(=O)(=O)N2C[C@@H]([C@@H]3CCCOC3)[C@H](Nc3ccc(F)c(Cl)c3)C2)c1 (mixture of isomers) [Example 789, Trans-N-(3-chloro-4-fluorophenyl)-1-[(1-methyl-1H-imidazol-4-yl)sulfonyl]-4-[(3S)-tetrahydro-2H-pyran-3-yl]pyrrolidin-3-amine] | ≥ 6.00
10 | CC(C)OCCCNC[C@@H]1CN(S(=O)(=O)c2cn(C)cn2)C[C@H]1c1ccc(F)cc1 (relative stereo) [Example 591, N-({trans-4-(4-fluorophenyl)-1-[(1-methyl-1H-imidazol-4-yl)sulfonyl]pyrrolidin-3-yl}methyl)-3-(propan-2-yloxy)propan-1-amine] | ≥ 5.00
11 | CCS(=O)(=O)N1C[C@@H](NC(=O)c2cc(Cl)cc(Cl)c2)[C@H](c2ccccc2)C1 (relative stereo) [Example 123, 3,5-dichloro-N-[trans-1-(ethylsulfonyl)-4-phenylpyrrolidin-3-yl]benzamide] | ≥ 5.00
12 | O=C(N[C@@H]1CN(S(=O)(=O)CC2CC2)C[C@H]1c1ccccc1)c1cc(Cl)cc(Cl)c1 (relative stereo) [Example 129, 3,5-dichloro-N-{trans-1-[(cyclopropylmethyl)sulfonyl]-4-phenylpyrrolidin-3-yl}benzamide] | < 5.00
13 | COc1ccc(S(=O)(=O)N2C[C@@H](NC(=O)c3cccc(C(F)(F)F)c3Cl)[C@H](c3ccccc3)C2)cc1 (relative stereo) [Example 136, 2-chloro-N-{trans-1-[(4-methoxyphenyl)sulfonyl]-4-phenylpyrrolidin-3-yl}-3-(trifluoromethyl)benzamide] | ≥ 5.00
14 | Cc1cnc(CN[C@H]2CN(S(=O)(=O)c3cn(C)cn3)C[C@@H]2c2ccccc2)s1 [Example 431, (3R,4S)-1-[(1-methyl-1H-imidazol-4-yl)sulfonyl]-N-[(5-methyl-1,3-thiazol-2-yl)methyl]-4-phenylpyrrolidin-3-amine] | ≥ 5.00
15 | Cn1cnc(S(=O)(=O)N2C[C@@H](Nc3ccc(Cl)cc3)[C@H](c3ccccc3)C2)c1 (relative stereo) [Example 75, trans-N-(4-chlorophenyl)-1-[(1-methyl-1H-imidazol-4-yl)sulfonyl]-4-phenylpyrrolidin-3-amine] | ≥ 6.00
16 | Cn1cnc(S(=O)(=O)N2C[C@@H](C(=O)NCc3cccc(Cl)c3)[C@H](c3ccc(F)cc3)C2)c1 (relative stereo) [Example 628, Trans-N-(3-chlorobenzyl)-4-(4-fluorophenyl)-1-[(1-methyl-1H-imidazol-4-yl)sulfonyl]pyrrolidine-3-carboxamide] | ≥ 8.00
17 | Cn1cnc(S(=O)(=O)N2C[C@@H](Nc3cccc(F)c3)[C@H](c3ccccc3Cl)C2)c1 (relative stereo) [Example 252, trans-4-(2-chlorophenyl)-N-(3-fluorophenyl)-1-[(1-methyl-1H-imidazol-4-yl)sulfonyl]pyrrolidin-3-amine] | ≥ 6.00
18 | Cn1cnc(S(=O)(=O)N2C[C@@H](C(=O)c3cccc(C(F)(F)F)c3)[C@H](c3ccc(F)cc3)C2)c1 (relative stereo) [Example 302, {trans-4-(4-fluorophenyl)-1-[(1-methyl-1H-imidazol-4-yl)sulfonyl]pyrrolidin-3-yl}[3-(trifluoromethyl)phenyl]methanone] | ≥ 7.00
19 | Cn1cnc(S(=O)(=O)N2C[C@H](NC(=O)NCc3ccccc3Cl)[C@@H](c3ccc(F)cc3)C2)c1 [Example 705, 1-(2-chlorobenzyl)-3-{(3R,4S)-4-(4-fluorophenyl)-1-[(1-methyl-1H-imidazol-4-yl)sulfonyl]pyrrolidin-3-yl}urea] | ≥ 6.00
20 | Cn1cnc(S(=O)(=O)N2C[C@@H](Nc3cccc(Cl)c3)[C@H](C3CCCOC3)C2)c1 (relative stereo) [Example 783, trans -N-(3-chlorophenyl)-1-[(1-methyl-1H-imidazol-4-yl)sulfonyl] -4-(tetrahydro-2H-pyran-3 - yl)pyrrolidin-3-amine] | ≥ 6.00
21 | Cn1cnc(S(=O)(=O)N2C[C@@H](NC(=O)c3cccc(C#N)c3)[C@H](c3ccccc3)C2)c1 (relative stereo) [Example 33, 3-cyano-N-{trans-1-[(1-methyl-1H-imidazol-4-yl)sulfonyl]-4-phenylpyrrolidin-3-yl}benzamide] | ≥ 5.00
22 | Cc1ccc(CN[C@@H]2CN(S(=O)(=O)c3cn(C)cn3)C[C@H]2c2ccc(F)cc2)cc1 (relative stereo) [Example 155, trans-4-(4-fluorophenyl)-N-(4-methylbenzyl)-1-[(1-methyl-1H-imidazol-4-yl)sulfonyl]pyrrolidin-3-amine] | ≥ 7.00
23 | CCCCCN(CCCCC)[C@@H]1CN(S(=O)(=O)c2cn(C)cn2)C[C@H]1c1ncccc1F (relative stereo) [Example 764, Trans-4-(3-fluoropyridin-2-yl)-1-[(1-methyl-1H-imidazol-4-yl)sulfonyl]-N,N-dipentylpyrrolidin-3-amine] | ≥ 6.00
24 | O=C1Cc2cc(S(=O)(=O)N3CC(Nc4ccc(F)c(F)c4)C(c4ccccc4)C3)ccc2N1 (stereo not shown) [Example 507, 5-({3-[(3,4-difluorophenyl)amino]-4-phenylpyrrolidin-1-yl}sulfonyl)-1,3-dihydro-2H-indol-2-one] | ≥ 5.00
25 | Cn1cnc(S(=O)(=O)N2C[C@@H](Nc3ccc(F)c(Cl)c3)[C@H](c3ccccc3)C2)c1 (relative stereo) [Example 215, trans-N-(3-chloro-4-fluorophenyl)-1-[(1-methyl-1H-imidazol-4-yl)sulfonyl]-4-phenylpyrrolidin-3-amine] | ≥ 7.00

Same assay, conditions: radioligand binding, recombinant CHO cell membranes expressing human GlyT1c

Row | Structure (SMILES) | pKi
26 | Cn1cnc(S(=O)(=O)N2C[C@H](Nc3cc(C(F)(F)F)c(F)cn3)[C@@H](c3ccc(F)cc3)C2)c1 [Example 865, 5-fluoro-N-{(3R,4S)-4-(4-fluorophenyl)-1-[(1-methyl-1H-imidazol-4-yl)sulfonyl]pyrrolidin-3-yl}-4-(trifluoromethyl)pyridin-2-amine] | ≥ 8.00
27 | Cn1cnc(S(=O)(=O)N2C[C@@H](Nc3cccc(Cl)c3)[C@H](C3CCCCO3)C2)c1 (relative stereo) [Example 849, Trans-N-(3-chlorophenyl)-1-[(1-methyl-1H-imidazol-4-yl)sulfonyl]-4-(tetrahydro-2H-pyran-2-yl)pyrrolidin-3-amine] | ≥ 7.00
28 | Cn1cc(S(=O)(=O)N2C[C@H](Nc3cccc(C(F)(F)F)c3)[C@@H](c3ccc(F)cc3)C2)nn1 [Example 839, (3R,4S)-4-(4-fluorophenyl)-1-[(1-methyl-1H-1,2,3-triazol-4-yl)sulfonyl]-N-[3-(trifluoromethyl)phenyl]pyrrolidin-3-amine] | ≥ 8.00
